Tests used:
Type in all cases: functional, cell-based
[1] = tested on: A549; experiment: Cytotoxicity against human A549 cells after 72 hrs by MTT assay; conditions: A549, 72 h
[2] = tested on: 786-0; experiment: Cytotoxicity against human 786-O cells after 72 hrs by MTT assay; conditions: 786-0, 72 h
[3] = tested on: HepG2; experiment: Cytotoxicity against human HepG2 cells after 72 hrs by MTT assay; conditions: HepG2, 72 h
[4] = tested on: HeLa; experiment: Cytotoxicity against human HeLa cells after 72 hrs by MTT assay

SMILES | IC50 [1] [µM] | IC50 [2] [µM] | IC50 [3] [µM] | IC50 [4] [µM]
C[C@@H](C[C@@H](O)[C@H](O)C(C)(C)O)[C@@H]1CC[C@]2(C)C3=CC[C@H]4C(C)(C)C(=O)CC[C@]4(C)[C@H]3CC[C@@]12C | > 40 | > 40 | > 40 | > 40
C=C(C)[C@H](O)[C@H]1C=C([C@@H]2CC=C3[C@]4(C)[C@H](O)C[C@H]5C(C)(C)OC(=O)C=C[C@]5(C)[C@H]4[C@H](OC(=O)/C(C)=C/C)C[C@]32C)C(=O)O1 | > 40 | > 40 | > 40 | > 40
CC(C)(O)[C@@H]1OC[C@H]([C@@H]2CC[C@]3(C)C4=CC[C@H]5C(C)(C)C(=O)CC[C@]5(C)[C@H]4CC[C@@]23C)C[C@H]1O | > 40 | > 40 | > 40 | > 40
CC(C)(O)[C@@H]1OC[C@H]([C@@H]2CC[C@]3(C)C4=CC(=O)[C@H]5C(C)(C)C(=O)CC[C@]5(C)[C@H]4CC[C@@]23C)C[C@H]1O | > 40 | > 40 | > 40 | > 40
C/C=C(\C)C(=O)O[C@@H]1C[C@]2(C)C(=CC[C@H]2C2=C[C@H]([C@H](O)C(C)(C)OC)OC2=O)[C@]2(C)[C@H](O)C[C@H]3C(C)(C)OC(=O)C=C[C@]3(C)[C@@H]12 | > 40 | > 40 | > 40 | > 40
CC1(C)C(=O)CC[C@]2(C)[C@H]3C[C@@H](O)[C@@H]4[C@@H]([C@]5(C)CCC(=O)O5)CC[C@@]4(C)[C@]3(C)CC[C@@H]12 | > 40 | > 40 | > 40 | > 40
C/C=C(\C)C(=O)O[C@@H]1C[C@]2(C)C(=CC[C@H]2[C@@H]2C[C@H]([C@H](O)C(C)(C)OC)O[C@H]2OC)[C@]2(C)[C@H](O)C[C@H]3C(C)(C)OC(=O)C=C[C@]3(C)[C@@H]12 | > 40 | > 40 | > 40 | > 40
COC(C)(C)[C@@H](O)[C@H]1C=C([C@@H]2CC(=O)[C@@H]3[C@@]2(C)CC[C@@H]2[C@@]4(C)C=CC(=O)OC(C)(C)[C@@H]4C[C@@H](OC(C)=O)[C@]23C)C(=O)O1 | > 40 | > 40 | > 40 | > 40
COC(=O)CC[C@]1(C)[C@H]2CC[C@@]3(C)[C@H]([C@@H](C)C[C@@H](O)[C@H](O)C(C)(C)O)CC[C@]3(C)C2=CC[C@H]1C(C)(C)O | 38.6 | 27.4 | 35.5 | 38.4
C/C=C(\C)C(=O)O[C@@H]1C[C@]2(C)C(=CC[C@H]2C2=C[C@H]([C@H](O)C(C)(C)O)OC2=O)[C@]2(C)[C@H](O)C[C@H]3C(C)(C)OC(=O)C=C[C@]3(C)[C@@H]12 | > 40 | > 40 | > 40 | > 40
C/C=C(\C)C(=O)O[C@@H]1C[C@]2(C)C(=CC[C@H]2C2=CO[C@@H]([C@H](O)C(C)(C)O)C2)[C@]2(C)[C@H](O)C[C@H]3C(C)(C)OC(=O)C=C[C@]3(C)[C@@H]12 | 39.8 | 34.4 | 38.8 | 33.2
C/C=C(\C)C(=O)O[C@@H]1C[C@]2(C)C(=CC[C@H]2[C@@H]2C[C@H]([C@H](O)C(C)(C)OC)O[C@@H]2OC)[C@]2(C)[C@H](O)C[C@H]3C(C)(C)OC(=O)C=C[C@]3(C)[C@@H]12 | 12.5 | 8.2 | 38.8 | 38.4
CC1(C)C(=O)CC[C@]2(C)[C@H]3CC[C@@H]4[C@@H]([C@]5(C)CCC(=O)O5)CC[C@@]4(C)[C@]3(C)CC[C@@H]12 [CABRALELACTONE] | > 40 | > 40 | > 40 | > 40
COc1cc2c(c(OC)c1OC)-c1ccc(OC)c(=O)cc1[C@@H](NC(C)=O)CC2 [COLCHICINE] | 0.043 | 0.022 | 0.078 | –
